These results are taken from patent US12364718B2, “Microbial compositions to increase the production of PCA from polyphenols” (priority 2020, dated 2025).

Assay [1] relates to B. subtilis 1579. As to the kind of experiment: National Antimicrobial Resistance Monitoring System (NARMS) panel screening, MIC in […] 96-well plate. In kind it is cell-based, Bacillus subtilis. Further details: Minimum Inhibitory Concentrations (MIC), 1579a / Minimum Inhibitory Concentrations (MIC), 1579b: unit not given here. The settings on record: for MIC interpretation (susceptible/intermediate/resistant), 1579a / Minimum Inhibitory Concentrations (MIC), 1579a: duplicate a; for MIC interpretation (susceptible/intermediate/resistant), 1579a / MIC interpretation (susceptible/intermediate/resistant), 1579b: CLSI M45 Bacillus spp. or NARMS Enterococcus breakpoints; for MIC interpretation (susceptible/intermediate/resistant), 1579b / Minimum Inhibitory Concentrations (MIC), 1579b: duplicate b; for Minimum Inhibitory Concentrations (MIC), 1579a / Minimum Inhibitory Concentrations (MIC), 1579b: Mueller-Hinton broth, 37° C., read at 18 hours. As to the method:
Methods. […] A sterile swab was used to take a portion of the pellet and resuspended in sterile ddH2O tubes; a 0.5 McFarland standard was used to determine the optimal dilution. 15 microliters of the ddH2O was transferred into the 5 mL tubes of Mueller-Hinton broth and the mixture was vortexed and poured into a sterile boat. A p200 multi-channel pipette was used to transfer 50 microliters into each well of the […] 96-well microtiter plate (CMV3AGPF) plate (FIG. 3) and sealed. The plates were incubated at 37° C. overnight. The plates were removed at 18 hours and each well was given a result of either positive or negative depending on if there was any growth in the well.

Assay [2] deals with Bovine Aortic Endothelial Cells (BAEC). Nature of the assay: Inflammatory marker gene expression in LPS stimulated bovine endothelial cells (qPCR). In kind it is cell-based. Further details: Cox-2 gene expression: dose or concentration left out as unconfirmed. As to conditions: LPS stimulation, 6 hours, qPCR vs GAPDH. As to the method: To determine potential mode of action of PCA, in vitro studies were performed using Bovine Aortic Endothelial Cells (BAEC). Stress was induced in mammalian endothelial cells using a lipopolysaccharide (LPS) model, which causes an inflammatory response through inflammatory cytokine, NO and prostaglandin release. After 6 hours, cells were lysed and cellular RNA was recovered using Direct-zol RNA MiniPrep Plus kit (Zymo Research) following the manufacturer's instructions. RNA was converted to cDNA using the QuantiNova Reverse Transcription Kit (Qiagen). Gene expression was then quantified using the QuantiTect SYBR Green PCR kit with primers specific for inflammatory markers. Inducible nitric oxide expression was screened using primers iNOSF ([…], SEQ ID NO: 7) and iNOSR ([…], SEQ ID NO: 8), Cyclo-oxygenase 2 primers, COX2F ([…], SEQ ID NO: 9) and COX2R ([…], SEQ ID NO: 10), and Interleukin-6 primers IL6F ([…], SEQ ID NO: 11) and IL6R ([…], SEQ ID NO: 12) compared against the house keeping gene GAPDH, primers GAPDH-F ([…], SEQ ID NO: 13) and GAPDH-R ([…], SEQ ID NO: 14). Quantitative PCR reactions were set up in 20 μl volumes as per the manufacturer's recommendations (Qiagen). Thermocycler conditions started with a 15 min denaturation at 95° C. followed by 40 cycles of denaturation at 95° C. for 15 seconds, annealing at 60° C. for 30 seconds and extension at 60° C. for 30 seconds before a melt curve.

Take `CCCCCCCCCC(=O)N[C@@H](Cc1c[nH]c2ccccc12)C(=O)N[C@H](CC(N)=O)C(=O)N[C@@H](CC(=O)O)C(=O)N[C@@H]1C(=O)NCC(=O)N[C@@H](CCCN)C(=O)N[C@@H](CC(=O)O)C(=O)N[C@H](C)C(=O)N[C@@H](CC(=O)O)C(=O)NCC(=O)N[C@H](CO)C(=O)N[C@@H]([C@H](C)CC(=O)O)C(=O)N[C@@H](CC(=O)c2ccccc2N)C(=O)O[C@@H]1C` [Daptomycin]: in assay [1], the “MIC interpretation (susceptible/intermediate/resistant), 1579a” value is “S” and the “MIC interpretation (susceptible/intermediate/resistant), 1579b” value is “S”.
For `O=C(O)c1ccc(O)c(O)c1` [PCA, protocatechuic acid], in assay [2] (1 g/ml and 10 µg/ml PCA), the IL-6 expression result is “dose dependently decreased” and the iNOS gene expression result is listed as “decreased”. The Cox-2 gene expression result in assay [2] (PCA) was “decreased”.
In the case of `CN(C)c1cc(NC(=O)CNC(C)(C)C)c(O)c2c1C[C@H]1C[C@H]3[C@H](N(C)C)C(O)=C(C(N)=O)C(=O)[C@@]3(O)C(O)=C1C2=O` [Tigercycline], in assay [1], the “MIC interpretation (susceptible/intermediate/resistant), 1579a” value is listed as “S” and the “MIC interpretation (susceptible/intermediate/resistant), 1579b” value was “S”.
As to `CN[C@H](CC(C)C)C(=O)N[C@H]1C(=O)N[C@@H](CC(N)=O)C(=O)N[C@H]2C(=O)N[C@H]3C(=O)N[C@H](C(=O)N[C@H](C(=O)O)c4cc(O)cc(O)c4-c4cc3ccc4O)[C@H](O)c3ccc(c(Cl)c3)Oc3cc2cc(c3O[C@@H]2O[C@H](CO)[C@@H](O)[C@H](O)[C@H]2O[C@H]2C[C@](C)(N)[C@H](O)[C@H](C)O2)Oc2ccc(cc2Cl)[C@H]1O` [Vancomycin], in assay [1], the “MIC interpretation (susceptible/intermediate/resistant), 1579a” value was “S” and the “MIC interpretation (susceptible/intermediate/resistant), 1579b” value is listed as “S”.
As to Gentamycin, in assay [1], the “MIC interpretation (susceptible/intermediate/resistant), 1579a” value is listed as “S”; the “Minimum Inhibitory Concentrations (MIC), 1579a” value turned out to be 128; the “MIC interpretation (susceptible/intermediate/resistant), 1579b” value is reported as “S”; the “Minimum Inhibitory Concentrations (MIC), 1579b” value worked out at 128.
In the case of Penicillin, in assay [1], the “MIC interpretation (susceptible/intermediate/resistant), 1579a” value was “S”; the “Minimum Inhibitory Concentrations (MIC), 1579a” value is listed as 1; the “MIC interpretation (susceptible/intermediate/resistant), 1579b” value is listed as “S”; the “Minimum Inhibitory Concentrations (MIC), 1579b” value is reported as 0.5.
With Quinupristin/dalfopristin, in assay [1], the “Minimum Inhibitory Concentrations (MIC), 1579a” value is recorded as 4 and the “Minimum Inhibitory Concentrations (MIC), 1579b” value is 32.
